Data on 21 compounds can be found in patent publication US20020028929A1, “Estradiol derivative and immunoassay using the same” (priority 2000, published 2002).

In the first data set the test system is antiserum RY725 (Rabbit antiserum obtained in Example 1-(1)). Description: ELISA system for 17β-estradiol with biotinylated estradiol derivative 2 as labeled compound (standard curve, cross-reactivity test). In kind it is binding. As to conditions: relative to 17β-estradiol (calculated as 100%), labeled compound biotinylated estradiol derivative 2. As for the experimental part: (1) An ELISA system for 17β-estradiol using the derivative of the invention as a labeled compound was prepared in the following manner.
(a) 100 μL of a standard solution or a sample is pipetted into each well of the 96-well plate, followed by addition of 50 μL of the labeled compound (0.2 ng/mL) comprising the biotinylated estradiol derivative of the invention and 50 μL of the antiserum (×32000);
(b) the reaction is allowed to proceed at 4° C. overnight (for 18-20 hours);
(§1) (c) all the wells are washed with the wash solution 4 times;
(d) the reaction is allowed to proceed using a microplate shaker at room temperature for 2 hours;
(e) all the wells are washed with the wash solution 4 times;
(f) […] of the substrate is added;
(g) the reaction is allowed to proceed at room temperature for 20 minutes;
(h) 100 μL of the enzyme reaction stop solution is pipetted into each well;
(i) absorbance at 450 nm is measured with a microplate autoreader.
The specifity of the 17β-estradiol ELISA system was assessed in the following manner.
As to `CC[C@H](c1ccc(O)cc1)[C@@H](CC)c1ccc(O)cc1` [Hexestrol], the “Cross-reactivity (%)” value is 0.00%.
Take `C[C@]12CC[C@H]3[C@@H](CCC4=CC(=O)CC[C@@]43C)[C@@H]1CC[C@@H]2O` [Testosterone]: the “Cross-reactivity (%)” value is 0.28%.
With `C#C[C@]1(O)CC[C@H]2[C@@H]3CCc4cc(OC)ccc4[C@H]3CC[C@@]21C` [Mestranol], the “Cross-reactivity (%)” value was 0.14%.
The same measure, in the same setting: the value for β-Estradiol 3-sulfate was 11.05%.
Take `C[C@]12CCC(=O)C=C1CC[C@@H]1[C@@H]2[C@@H](O)C[C@]2(C=O)[C@@H](C(=O)CO)CC[C@@H]12` [d-ALDOSTERONE]: the “Cross-reactivity (%)” value was 0.00%.
For `C[C@]12CCC3c4ccc(OS(=O)(=O)O)cc4CCC3C1CC[C@@H]2OS(=O)(=O)O` (stereo partly drawn) [β-Estradiol 3,7-disulfate], the “Cross-reactivity (%)” value is 0.00%.
For the compound `CC12CCC3c4ccc(OC5OC(C(=O)O)C(O)C(O)C5O)cc4CCC3C1CCC2OS(=O)(=O)O` (stereo not drawn) [β-Estradiol 3-glucronide 17-sulfate], the “Cross-reactivity (%)” value is 0.02%.
As for `C[C@]12CC[C@@H]3c4ccc(O)cc4CC[C@H]3[C@@H]1C[C@@H](O)[C@@H]2O` [Estriol], the “Cross-reactivity (%)” value is recorded as 0.16%.
Take `C[C@]12CC[C@@H]3c4ccc(OS(=O)(=O)O)cc4CC[C@H]3[C@@H]1CC[C@@H]2O[C@@H]1O[C@H](C(=O)O)[C@@H](O)[C@H](O)[C@H]1O` [β-Estradiol 3-sulfate 17-glucronide]: the “Cross-reactivity (%)” value is reported as 0.00%.
Still for that read-out and setting: the value for `COc1cc2c(cc1O)CC[C@@H]1[C@@H]2CC[C@]2(C)[C@@H](O)CC[C@@H]12` [2-Methoxyestradiol] was 1.79%.
Turning to `C[C@]12CC[C@@H]3c4ccc(O)cc4CC[C@H]3[C@@H]1CC[C@@H]2O[C@@H]1O[C@H](C(=O)O)[C@@H](O)[C@H](O)[C@H]1O` [β-Estradiol 17-(β-D-glucronide)], the “Cross-reactivity (%)” value is 0.00%.
Turning to `C[C@]12CC[C@@H]3c4ccc(O[C@@H]5O[C@H](C(=O)O)[C@@H](O)[C@H](O)[C@H]5O)cc4CC[C@H]3[C@@H]1CC[C@@H]2O` [β-Estradiol 3-(β-D-glucronide)], the “Cross-reactivity (%)” value was 37.44%.
As to `C#C[C@]1(O)CC[C@H]2[C@@H]3CCc4cc(O)ccc4[C@H]3CC[C@@]21C` [Ethynylestradiol], the “Cross-reactivity (%)” value is on record as 0.03%.
With `C[C@]12CCC(=O)C=C1CC[C@@H]1[C@@H]2CC[C@]2(C)C(=O)CC[C@@H]12` [(+)-4-Androsteron-3,17-dione], the “Cross-reactivity (%)” value is recorded as 0.02%.
For the compound `CC(=O)[C@H]1CC[C@H]2[C@@H]3CCC4=CC(=O)CC[C@]4(C)[C@H]3CC[C@]12C` [Progesteron], the “Cross-reactivity (%)” value is on record as 0.01%.
In the case of `C[C@]12CC[C@@H]3c4ccc(O)cc4CC[C@H]3[C@@H]1CC[C@@H]2O` [17β-Estradiol], the “Cross-reactivity (%)” value is on record as 100.00%.

In a further data set the test system is antiserum RY469 (Rabbit antiserum prepared in Example 1-(2)). The experiment in a line: ELISA system for estrone with biotinylated estradiol derivative 1 as labeled compound (standard curve, cross-reactivity test). The format is binding. As to conditions: relative to estrone (calculated as 100%), labeled compound biotinylated estradiol derivative 1. The procedure:
(2) An ELISA system for estrone using the derivative of the invention as a labeled compound was designed in the following manner.
Biotinylated estradiol derivative 1 of the invention
RY469 (Rabbit antiserum prepared in Example 1-(2)
(a) 100 μL of a standard solution or a sample is pipetted into each well of the 96-well plate, followed by addition of 50 μL of the labeled compound (0.25 ng/mL) comprising the biotinylated estradiol derivative of the invention and 50 μL of the antiserum (×32000);
(b) the reaction is allowed to proceed using a microplate shaker at room temperature for 5 hours;
as §1
(d) 100 μL of the HRP-labeled reagent (×5000) is added;
(e) the reaction is allowed to proceed using a microplate shaker at room temperature for 1 hour;
(f) all the wells are washed with the wash solution 4 times;
(g) 100 μL of the substrate is added;
(h) the reaction is allowed to proceed at 20° C. for 20 minutes;
(i) 100 μL of the enzyme reaction stop solution is pipetted into each well;
(j) absorbance at 450 nm is measured with a microplate autoreader.
The specifity of the estrone ELISA system was assessed in the following manner.
ELISA was repeated in a similar manner as in Example 3-(2) except that the estrogens shown in Table 2 were used in place of the standard estrone (Sigma Co.). The standard curve of each of the estrogens was obtained (see FIG. 6).
For the compound Nonylphenol, the “Cross-reactivity (%)” value was less than 0.001%.
Turning to `C[C@]12CC[C@@H]3c4ccc(O)cc4CC[C@H]3[C@@H]1C[C@@H](O)[C@@H]2O` [Estriol], the “Cross-reactivity (%)” value is given as 0.15%.
`O=C(O[C@@H]1Cc2c(O)cc(O)cc2O[C@@H]1c1ccc(O)c(O)c1)c1cc(O)c(O)c(O)c1` [Epicatechin gallate]: the “Cross-reactivity (%)” value is reported as less than 0.001%.
With `CC(C)(c1ccc(O)cc1)c1ccc(O)cc1` [Bisphenol A], the “Cross-reactivity (%)” value is listed as less than 0.001%.
For the compound `C[C@]12CC[C@@H]3c4ccc(O)cc4CC[C@H]3[C@@H]1CC[C@@H]2O` [17β-Estradiol], the “Cross-reactivity (%)” value is 33.33%.
In the case of Catechin, the “Cross-reactivity (%)” value is less than 0.001%.

Test system in the next data set: not given
Assay: not given
The following applies: general statement on prior art; cited from earlier work.
As for `O=C(O)CCCC[C@@H]1SC[C@@H]2NC(=O)N[C@@H]21` [biotin], the solubility in water entry is on record as “minimally soluble in water”.
